Some test systems named below: HCC 2998; K562; OVCAR-8; SF-268; SF-539; 786-0; OVCAR-5; M14; HOP-62; SNB-19; RXF 393; HOP-92; OVCAR-3; TK-10; SK-OV-3; SK-MEL-28; UACC-62; CCRF-CEM; SNB-75; SR.
Holding throughout (assay): NCI-60 cell line screen, 48 h

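Five concentrations, 48 hours, 96-well plates. GI50: concentration for 50% inhibition of growth.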 Active and inactive are the calls of the source. Rule as the data show it: active = GI50 up to about 1.1 µM and inactive = higher.

Take `CCCCCCCCCCCCOCC(COP(=O)(O)OCCN=[N+]=[N-])OC(=O)CCCCCCCCCCC` (centres undefined): the GI50 in the test with HCC 2998, in the test on K562, in the test with OVCAR-8, in the test with SF-268, in the test with SF-539 and in the test on 786-0 was > 100 µM (inactive) each time. Further, the GI50 in the test on OVCAR-5, in the test on M14, with HOP-62, with SNB-19, in the test on RXF 393 and with HOP-92 was > 100 µM (inactive) in each case. Besides, the GI50 with OVCAR-3, in the test with TK-10, in the test with SK-OV-3, with SK-MEL-28 and in the test on UACC-62 was > 100 µM (inactive) in each case.
With `N#C/C(=C1\OC(=N)C(c2ccccc2)C1=O)c1ccccc1` (centres undefined), the GI50 is 90.2 µM (inactive) with HCC 2998; 22.6 µM (inactive) with K562; 15.9 µM (inactive) with CCRF-CEM; 28.3 µM (inactive) in the test on SNB-75; 27.9 µM (inactive) in the test on OVCAR-8; 48.3 µM (inactive) in the test with SF-268. Besides, the GI50 with SF-539 was > 31.6 µM (inactive); in the test with 786-0, 25 µM (inactive); in the test with OVCAR-5, > 100 µM (inactive); in the test with M14, 24.4 µM (inactive); with HOP-62, > 100 µM (inactive); with SNB-19 it was > 100 µM (inactive). Besides, the GI50 in the test on RXF 393 was 17.9 µM (inactive); in the test with HOP-92, 33.8 µM (inactive); in the test with OVCAR-3, 28.1 µM (inactive); in the test on TK-10, 29.7 µM (inactive); in the test on SK-OV-3 it was > 100 µM (inactive); in the test with SK-MEL-28 it was 13.3 µM (inactive). For the same compound, in the test with UACC-62, the GI50 is 22.2 µM (inactive).
Regarding `O=C(N/N=C1\CCc2ccccc2C1)N/N=C1\CCc2ccccc2C1`, the GI50 with HCC 2998, in the test on K562, in the test with CCRF-CEM, with OVCAR-8, in the test on SF-268 and in the test with 786-0 was > 10 µM (inactive) in each case. For the same compound, the GI50 with OVCAR-5, with M14, with HOP-62, in the test on SNB-19, in the test with SR and in the test on RXF 393 was > 10 µM (inactive) in each case. The GI50 with OVCAR-3 and with TK-10 was > 10 µM (inactive) throughout.
For `COC(=O)Nc1nc2cc(C(=O)c3cccs3)ccc2[nH]1` [NOCODAZOLE], the GI50 in the test with K562 was < 0.0118 µM (active); with CCRF-CEM, 0.0145 µM (active); in the test on OVCAR-8, 0.029 µM (active); in the test on SF-268 it was 0.0893 µM (active); in the test with 786-0 it was 0.0789 µM (active); with OVCAR-5 it was 20.7 µM (inactive). Moreover, the GI50 is 0.014 µM (active) with M14; 0.0287 µM (active) in the test with HOP-62; 0.0857 µM (active) with SNB-19; 0.0134 µM (active) in the test with RXF 393; 0.292 µM (active) in the test on HOP-92; 2.95 µM (inactive) in the test on TK-10. Moreover, the GI50 with SK-OV-3 was 0.0165 µM (active); in the test with SK-MEL-28, 0.0957 µM (active); in the test on UACC-62 it was 0.0184 µM (active).
On to `OCC1OC(c2ccccc2)CC1O` (centres undefined), for which the GI50 in the test with K562, in the test on CCRF-CEM, in the test with SNB-75, in the test with OVCAR-8, in the test on SF-539 and in the test with 786-0 was > 100 µM (inactive) in each case. In addition, the GI50 in the test with OVCAR-5, in the test on M14, in the test with SNB-19, in the test on SR, in the test with RXF 393 and with OVCAR-3 was > 100 µM (inactive) in each case. For the same compound, the GI50 with TK-10, with SK-OV-3, in the test with SK-MEL-28 and in the test on UACC-62 was > 100 µM (inactive) in each case.
`COc1ccc(CCN2CCN(CCc3ccc(OC)cc3)CC2)cc1`: the GI50 in the test with HCC 2998, in the test with K562, in the test on CCRF-CEM, with OVCAR-8, in the test with SF-268 and in the test on SF-539 was > 100 µM (inactive) each time. The GI50 in the test on 786-0 was > 100 µM (inactive); in the test on OVCAR-5 it was > 100 µM (inactive); in the test with M14, > 100 µM (inactive); in the test on HOP-62 it was > 100 µM (inactive); in the test with SNB-19, > 100 µM (inactive); in the test on RXF 393, 26.2 µM (inactive). Besides, the GI50 with HOP-92, in the test on OVCAR-3, in the test with TK-10, with SK-OV-3, in the test on SK-MEL-28 and in the test on UACC-62 was > 100 µM (inactive) each time.
In the case of `COc1cc(C)c(/C=C2/N=C(c3ccccc3)OC2=O)c([N+](=O)[O-])c1OC`, the GI50 was > 100 µM (inactive) with HCC 2998; > 100 µM (inactive) with K562; 73.6 µM (inactive) in the test with CCRF-CEM; 89.1 µM (inactive) in the test on SNB-75; > 100 µM (inactive) with OVCAR-8; > 100 µM (inactive) with SF-268. Besides, the GI50 in the test with SF-539, with 786-0, in the test on OVCAR-5, in the test with M14, in the test on HOP-62 and with SNB-19 was > 100 µM (inactive) in each case. In addition, the GI50 with RXF 393 is > 100 µM (inactive); in the test with HOP-92, 37.4 µM (inactive); with OVCAR-3 it was > 100 µM (inactive); with TK-10 it was > 100 µM (inactive); with SK-OV-3, > 100 µM (inactive); in the test on SK-MEL-28, > 100 µM (inactive). For the same compound, the GI50 in the test on UACC-62 was > 100 µM (inactive).
Consider `CCN(CC)CCCNC(=O)c1ccc([N+](=O)[O-])cc1O`, for which the GI50 in the test on HCC 2998, in the test with K562, with CCRF-CEM, in the test with SNB-75, with OVCAR-8 and in the test on SF-268 was > 100 µM (inactive) throughout. Further, the GI50 in the test with SF-539, with 786-0, in the test on OVCAR-5, in the test on M14, in the test on HOP-62 and in the test with SNB-19 was > 100 µM (inactive) in each case. For the same compound, the GI50 with RXF 393, in the test with HOP-92, with OVCAR-3, with TK-10, in the test with SK-OV-3 and in the test on SK-MEL-28 was > 100 µM (inactive) each time. Moreover, the GI50 in the test on UACC-62 is > 100 µM (inactive).
As for `O=C(O)[C@@H]1CCS(=O)(=O)N1`, the GI50 with HCC 2998, in the test with CCRF-CEM, with OVCAR-8, in the test with SF-268, with SF-539 and in the test with 786-0 was > 100 µM (inactive) in each case. Besides, the GI50 in the test on OVCAR-5, in the test on M14, in the test with HOP-62, in the test on SNB-19, with SR and with RXF 393 was > 100 µM (inactive) in each case. Moreover, the GI50 with OVCAR-3, with TK-10, with SK-OV-3, with SK-MEL-28 and in the test with UACC-62 was > 100 µM (inactive) each time.
In the case of `Cc1cc(Cl)ccc1/N=N/C(=O)NNc1ccc(Cl)cc1C`, the GI50 in the test on HCC 2998 is 11.5 µM (inactive); with K562, 22 µM (inactive); with CCRF-CEM, 21.1 µM (inactive); with SNB-75 it was 15.6 µM (inactive); in the test on OVCAR-8, 13 µM (inactive); in the test with SF-268, 16.4 µM (inactive). Moreover, the GI50 is 16.3 µM (inactive) with 786-0; 15.8 µM (inactive) in the test on OVCAR-5; 16.9 µM (inactive) with M14; 11.5 µM (inactive) in the test on HOP-62; 17.6 µM (inactive) in the test on SNB-19; 22.2 µM (inactive) in the test with SR. In addition, the GI50 in the test on OVCAR-3 is 17.2 µM (inactive); in the test on TK-10 it was 18.2 µM (inactive); in the test with SK-MEL-28, 16.1 µM (inactive); in the test with UACC-62, 9.04 µM (inactive).
In the case of `CCCCNC(=O)C1=C(C)NC(C)=C(C(=O)NCCCC)C1`, the GI50 with HCC 2998 is > 100 µM (inactive); in the test on SNB-75, 49.8 µM (inactive); in the test with OVCAR-8, > 100 µM (inactive); in the test on SF-268, > 100 µM (inactive); with SF-539 it was > 100 µM (inactive); in the test on 786-0, > 100 µM (inactive). In addition, the GI50 in the test on OVCAR-5, with M14, in the test on HOP-62, in the test on SNB-19, in the test with RXF 393 and in the test with HOP-92 was > 100 µM (inactive) throughout. For the same compound, the GI50 in the test on OVCAR-3, in the test with TK-10, in the test with SK-OV-3, with SK-MEL-28 and with UACC-62 was > 100 µM (inactive) throughout.
In the case of `CCc1c(OC(C)=O)c2c(NC3OCC(OC(C)=O)C(OC(C)=O)C3OC(C)=O)nc(SC)nc2oc1=O` (centres undefined), the GI50 in the test with HCC 2998, in the test on K562, in the test with CCRF-CEM, with SNB-75, in the test on OVCAR-8 and with SF-539 was > 100 µM (inactive) throughout. Further, the GI50 with 786-0, in the test on OVCAR-5, in the test on M14, in the test on HOP-62, in the test on SNB-19 and in the test with RXF 393 was > 100 µM (inactive) throughout. The GI50 in the test with HOP-92, with OVCAR-3, in the test on TK-10, in the test with SK-OV-3 and with UACC-62 was > 100 µM (inactive) in each case.

The values above are taken from ChEMBL document CHEMBL1201862, “PubChem BioAssay data set” (2004).
